Where two headings read alike, the source gives them in different places.
What was measured:
[1] = system: CCI-induced neuropathic pain; test: Chronic constriction injury (CCI) model in mice, SC route; type: in vivo; settings: for Dose of maximum activity / Duration of activity at maximum effect / Level of activity (% of maximum effect-baseline) / Peak of activity (T): CCl model, mice
Protocol: Study outline in brief: The sciatic nerve of mice was exposed under anesthesia, and 3 loose ligations were placed around the nerve. Animals were allowed to recover for 3 days. Tactile allodynia (von Frey testing) and thermal (hot at 50±1° C. and cold at 2±1° C.) hyperalgesia were then assessed. Animals that experienced tactile allodynia were assigned to their treatment groups (vehicle, gabapentin and Formula 1 at different doses). Animals were subsequently treated daily for a period of 5 days with either vehicle or Formula 1 at different doses. Gabapentin at a dose of 150 mg/kg was dosed only on days of testing (day 3 and day 7).

14-3-3σ = 14-3-3σ expression in plasma and hind paw skin of Taxol dosed mice (Somascan); type: in vivo
Protocol: The Taxol model was used in order to investigate the MoA of Formula 1.
Animals showing chemotherapy-induced pain following repeated doses of taxol were treated with either vehicle gabapentin or Formula 1. Plasma was collected following the first dose of the test items and after 7 days of daily treatment. Skin from hind paws were also collected following 7 days of daily treatment. The tissues were processed and the expression levels on 1310 proteins were assessed (Somascan provided by SomaLogic, Inc., Boulder, Colo.).
Three statistical methods were used to identify protein expression that discriminated between Formula 1, gabapentin and vehicle on day 8, following a single dose, and on study day 14 following multiple dosing.
A comparison between day 8 and day 14 within each group was also performed. All methods were conducted on scaled data. First, a Student's t-test was performed in order to compare proteins between groups. Second, the LASSO (least absolute shrinkage and selection operator) method was applied. This is a regression technique that simultaneously performs variable selection and model coefficient modification. These models used group as the outcome and all 1310 proteins as the starting predictors. LASSO was then tuned to shrink unimportant coefficients to zero, leaving approximately the ten most important predictors of (or discriminators between) the groups. […]

[2] = type: in vivo; settings: naïve mice, 10 mg/kg IP
Protocol: Changes in responses of normal withdrawal threshold to heat and cold stimuli in naïve animals following drug treatment may reflect a CNS effect, as in the case of cannabinoids or opioids. Therefore, the response of the naïve mice post-Formula 1 administration at a dose of 10 mg/kg IP was assessed (Table 5).

[3] = system: CCI-induced neuropathic pain; test: CCI-induced neuropathic pain in the rat, oral; type: in vivo; settings: CCI rats
Protocol: Study plan in brief: SD male rats were operated as described by Bennet and Xie7. On study day 7, the sensitivity of the animals to von Frey was assessed. […] The animals were then dosed with either vehicle, gabapentin or Formula 1. Treatment with Formula 1 was not effective 2 h post-single dose.

[4] = type: in vivo, mice
Protocol: At 4 days, vehicle-treated animals gained approximately 1% body weight, going from 25.24±0.74 g to 25.50±0.64 g. Formula 1 treated animals went from 25.28±1.04 g to 25.82±1.25 g.
Animals treated with Formula 1 at a dose of 10 mg/kg IP for a period of 31 days gained […] body weight (changing from 21.44±0.18 g to 25.49±0.46 g). Vehicle treated animals gained […] body weight (changing from 21.45±0.19 g to 23.97±0.62 g; p=0.07), therefore no significant changes were found.

[5] = in vivo
Excerpt: Formula 1 was discovered following a comprehensive Senerga® Phenotypic screening.

CC(C)(C)C(=O)O[C@@H]1[C@@H]2[C@H]3C[C@H](C[C@@H]1N3Cc1ccccn1)CN2C(=O)CC(F)(F)F (relative stereo) [Formula 1, (2S*,3S*,3aS*,6R*,7aR*)-1-(pyridin-2-ylmethyl)-4-(3,3,3-trifluoropropanoyl)octahydro-1H-2,6-methanopyrrolo[3,2-b]pyridin-3-yl pivalate]
effect on response time in the hotplate test ([1]; CCI mice, SC): not significant | response time to cold stimuli ([1]; CCI mice, SC 30 mg/kg and 60 mg/kg): increased response time to cold stimuli | withdrawal force (von Frey) ([1]; CCI mice, SC 60 mg/kg, daily repeated treatment): significant increase in the withdrawal force | time of peak activity on cold response ([1]; CCI mice, SC, following a single dose): 2 h | time of peak activity on cold response ([1]; CCI mice, SC, post-dosing following repeated daily dosing): 2 h | tolerance effect ([1]; CCI mice, SC, repeated dosing): No tolerance effect was observed | Dose of maximum activity ([1]; SC, first SC line): 60 mg/kg | Duration of activity at maximum effect ([1]; SC, first SC line): >4 H | Level of activity (% of maximum effect-baseline) ([1]; SC, first SC line): 43% | Peak of activity (T) ([1]; SC, first SC line): 2 H | Level of activity (% of maximum effect-baseline) ([1]; SC, second SC line (readout not given)): 100% | Dose of maximum activity ([1]; SC, second SC line): 30 mg/kg | Duration of activity at maximum effect ([1]; SC, second SC line): >4 H | Peak of activity (T) ([1]; SC, second SC line): 2 H | 14-3-3σ expression in the skin (14-3-3σ; hind plantar skin, study day 14, repeated dosing, vs. vehicle): significantly reduced | relative decrease in stratifin (14-3-3σ) (14-3-3σ; plasma, day 8 to day 14, daily treatment, Taxol dosed mice, vs. naïve animals): ~50% | Response to cold stimuli (2 ± 1° C. ) [2]: 20.6 ± 11.39 s | Response to heat stimuli (50 ± 1° C. ) [2]: 12.87 ± 2.59 s | basal response to cold or heat stimuli [2]: not effective in altering the basal response | change of activity on continuous dosing [3]: increase in compound activity | withdrawal force (von Frey) ([3]; 2 h post-single dose): not effective | withdrawal threshold ([3]; daily oral 50 mg/kg, study day 11, 2 h post-treatment): significant increase in the withdrawal threshold | body weight at end ([4]; 10 mg/kg IP for 31 days): 25.49 ± 0.46 g | body weight at start ([4]; 10 mg/kg IP for 31 days): 21.44 ± 0.18 g | body weight gained ([4]; 10 mg/kg IP for 31 days): 15.64% | body weight at 4 days ([4]; 4-day observation): 25.82 ± 1.25 g | body weight at start ([4]; 4-day observation): 25.28 ± 1.04 g | effect on body weight gain ([4]; naïve mice, dosing for 31 days): did not affect body weight gain | activity in pain-related models [5]: showed activity in pain-related models | effect on blood pressure [5]: no effect on blood pressure | effect on bodyweight or food consumption [5]: no effect on bodyweight or food consumption | effect on specific CNS-related tests [5]: no effect on specific CNS-related tests | effect on swelling [5]: not effective on swelling | post-mortem finding [5]: no post-mortem finding | withdrawal threshold of naïve animals [5]: without affecting the withdrawal threshold of naïve animals
